Patent publication US20150119378A1, “AZETIDINYLOXY-, PYRROLIDINYLOXY-, AND PIPERIDINYLOXY-SUBSTITUTED METANICOTINES AS NEURONAL NICOTINIC ACETYLCHOLINE RECEPTOR LIGANDS” (priority 2013, published 2015)
pKi: −log10 of the molar value. Where two headings read alike, the source gives them in different places.

Columns and labels:
[1] = molecular target: T1, Human α4β2 (Homo sapiens, UniProt P17787+P43681); test: Competition binding to receptors in membrane preparations, human α4β2 ([3H]-nicotine)
T1 construct: expressed in transfected cells; obtained from Dr. Ron Lukas, Barrow Neurological Institute
Protocol: (§1) SH-EP1/human α4β2 (Eaton et al., 2003), SH-EP1/human α4β4 (Gentry et al., 2003), SH-EP1/α6β3β4α5 (Grinevich et al., 2005), TE671/RD and SH-SY5Y cell lines (obtained from Dr. Ron Lukas, Barrow Neurological Institute) were maintained in proliferative growth phase in Dulbecco's modified Eagle's medium (Gibco/BRL) with 10% horse serum (Gibco BRL), 5% fetal bovine serum (HyClone, Logan Utah), 1 mM sodium pyruvate, 4 mM L-glutamine. For maintenance of stable transfectants, the α4β2 and α4β4 cell media was supplemented with 0.25 mg/mL zeocin and 0.13 mg/mL hygromycin B. Selection was maintained for the α6β3β4α5 cells with 0.25 mg/mL of zeocin, 0.13 mg/mL of hygromycin B, 0.4 mg/mL of geneticin, and 0.2 mg/mL of blasticidin. HEK/human α7/RIC3 cells (obtained from J. Lindstrom, U. Pennsylvania) were maintained in proliferative growth phase in Dulbecco's modified Eagle's medium (Gibco/BRL) with 10% fetal bovine serum (HyClone, Logan Utah), 1 mM sodium pyruvate, 4 mM L-glutamine, 0.4 mg/mL geneticin; 0.2 mg/ml hygromycin B.
(§2) Cells were harvested in ice-cold PBS, pH 7.4, then homogenized with a polytron (Brinkmann Instruments, Westbury, N.Y.). Homongenates were centrifuged at 40,000 g for 20 minutes (4° C.). The pellet was resuspended in PBS and protein concentration determined using the Pierce BCA Protein Assay kit (Pierce Biotechnology, Rockford, Ill.).
(§3) Binding to nicotinic receptors was assayed on membranes using standard methods adapted from published procedures (Lippiello and Fernandes, 1986; Davies et al., 1999). In brief, membranes were reconstituted from frozen stocks (approximately 0.2 mg protein) and incubated for 2 h on ice in […] assay buffer (PBS) in the presence of competitor compound (0.001 nM to […]) and radioligand. [^3H]-nicotine (L-(−)-[N-methyl-3H]-nicotine, 69.5 Ci/mmol, Perkin-Elmer Life Sciences) was used for human α4β2 binding studies. [^3H]-epibatidine (52 Ci/mmol, Perkin-Elmer Life Sciences) was used for binding studies at the other receptor subtypes. Incubation was terminated by rapid filtration on a multimanifold tissue harvester (Brandel, Gaithersburg, Md.) using GF/B filters presoaked in 0.33% polyethyleneimine (w/v) to reduce non-specific binding. Filters were washed 3 times and the radioactivity retained was determined by liquid scintillation counting.
(§4) Binding data were expressed as percent total control binding. Replicates for each point were averaged and plotted against the log of drug concentration. The IC50 (concentration of the compound that produces 50% inhibition of binding) was determined by least squares non-linear regression using GraphPad Prism software (GraphPAD, San Diego, Calif.). Ki was calculated using the Cheng-Prusoff equation (Cheng and Prusoff, 1973).

[2] = molecular target: T2, Human Ganglion (Homo sapiens, UniProt P30926+P32297); test: Competition binding to receptors in membrane preparations, human ganglion subtype ([3H]-epibatidine)
T2 construct: endogenous in cells
Protocol: as §1, §2, §3, §4

[3] = molecular target: Rat Ganglion (Rattus norvegicus, UniProt P04757+P12392); test: Competition binding to receptors in membrane preparations, rat ganglion subtype ([3H]-epibatidine)
Protocol: as §3, §4

[4] = molecular target: T3, Human α7 nAChR (Homo sapiens, UniProt P36544); test: Competition binding to receptors in membrane preparations, human α7 ([3H]-epibatidine)
T3 construct: expressed in transfected cells; host or cells: HEK cells co-expressing RIC3 (from J. Lindstrom, U. Pennsylvania)
Protocol: as §1, §2, §3, §4

SMILES	pKi ([1]; read-out: Human α4β2 Ki)	pKi [2]	pKi [3]	pKi ([2]; read-out: Human Ganglion Ki)	pKi [4]	pKi [1]
CN[C@@H](C)C/C=C/c1cncc(O[C@H]2CCN(C(C)=O)C2)c1	7.92					
CCC(=O)N1CC[C@H](Oc2cncc(/C=C/C[C@H](C)NC)c2)C1	8.01	4.37	4.40			
CN[C@@H](C)C/C=C/c1cncc(O[C@H]2CCN(C(=O)C3CCOCC3)C2)c1	7.89	4.00	4.29			
CN[C@@H](C)C/C=C/c1cncc(O[C@@H]2CCN(C(C)=O)C2)c1	8.59	4.39	4.62			
CCC(=O)N1CC[C@@H](Oc2cncc(/C=C/C[C@H](C)NC)c2)C1	8.72	4.72	4.06			
CN[C@@H](C)C/C=C/c1cncc(O[C@@H]2CCN(C(=O)C3CCOCC3)C2)c1	8.36	4.36				
CCC(=O)N1CC(Oc2cncc(/C=C/C[C@H](C)NC)c2)C1	8.66					
CN[C@@H](C)C/C=C/c1cncc(OC2CN(C(=O)C3CCOCC3)C2)c1	8.32					
CN[C@@H](C)C/C=C/c1cncc(O[C@H]2CCN(C(=O)C3CC3)C2)c1	7.85	4.70				
CN[C@@H](C)C/C=C/c1cncc(O[C@H]2CCN(C(=O)COC)C2)c1	8.36	4.68				
CN[C@@H](C)C/C=C/c1cncc(O[C@H]2CCN(C(=O)c3ccco3)C2)c1	8.92	4.14				
CCCOC(=O)N1CC[C@H](Oc2cncc(/C=C/C[C@H](C)NC)c2)C1	8.11			4.60		
CN[C@@H](C)C/C=C/c1cncc(O[C@H]2CCN(C(=O)OCCOC)C2)c1	7.28			3.57		
CCNC(=O)N1CC[C@H](Oc2cncc(/C=C/C[C@H](C)NC)c2)C1	7.21	3.60				
CN[C@@H](C)C/C=C/c1cncc(O[C@@H]2CCN(C(=O)C3CC3)C2)c1	8.29	4.08				
CN[C@@H](C)C/C=C/c1cncc(O[C@@H]2CCN(C(=O)COC)C2)c1	8.04	4.26				
CN[C@@H](C)C/C=C/c1cncc(O[C@@H]2CCN(C(=O)c3ccco3)C2)c1	8.33	4.30				
CCCOC(=O)N1CC[C@@H](Oc2cncc(/C=C/C[C@H](C)NC)c2)C1	8.29			4.43		
CN[C@@H](C)C/C=C/c1cncc(O[C@@H]2CCN(C(=O)OCCOC)C2)c1	8.18			4.32		
CCNC(=O)N1CC[C@@H](Oc2cncc(/C=C/C[C@H](C)NC)c2)C1	8.00	3.85				
CN[C@@H](C)C/C=C/c1cncc(OC2CN(C(=O)COC)C2)c1	8.31			4.38		
CN[C@@H](C)C/C=C/c1cncc(OC2CN(C(=O)c3ccco3)C2)c1	8.55			4.70		
CCCOC(=O)N1CC(Oc2cncc(/C=C/C[C@H](C)NC)c2)C1	8.41	4.36				
CN[C@@H](C)C/C=C/c1cncc(OC2CN(C(=O)OCCOC)C2)c1	8.02	4.16				
CN[C@@H](C)C/C=C/c1cnc(Cl)c(O[C@H]2CCN(C(=O)C(C)C)C2)c1	7.89	4.57	4.80		4.54	
CN[C@@H](C)C/C=C/c1cncc(O[C@H]2CCN(C(=O)c3ccc(F)cc3F)C2)c1	7.54	5.48	4.10		4.33	

SMILES	pKi ([1]; read-out: Human α4β2 Ki)	pKi [2]	pKi [3]	pKi ([2]; read-out: Human Ganglion Ki)	pKi [4]	pKi [1]
CN[C@@H](C)C/C=C/c1cnc(Cl)c(O[C@H]2CCN(C(=O)c3ccc(F)cc3F)C2)c1	7.66				4.64	
CN[C@@H](C)C/C=C/c1cncc(O[C@H]2CCN(C(=O)C(C)(C)C)C2)c1	8.12	4.72	3.89		4.00	
CN[C@@H](C)C/C=C/c1cnc(Cl)c(O[C@H]2CCN(C(=O)C(C)(C)C)C2)c1	8.17	5.32	4.96		4.41	
CN[C@@H](C)C/C=C/c1cncc(O[C@H]2CCN(C(=O)C3CCC3)C2)c1	7.74	4.57	4.77		4.18	
CN[C@@H](C)C/C=C/c1cncc(O[C@H]2CCN(C(=O)C3CCCC3)C2)c1	8.11	4.89	5.16		4.07	
CN[C@@H](C)C/C=C/c1cnc(Cl)c(O[C@H]2CCN(C(=O)C3CCCC3)C2)c1	8.68	5.12	4.26		3.80	
CN[C@@H](C)C/C=C/c1cncc(O[C@H]2CCN(C(=O)CC(C)(C)C)C2)c1		4.92	4.68		4.19	7.96
CN[C@@H](C)C/C=C/c1cnc(Cl)c(O[C@H]2CCN(C(=O)CC(C)(C)C)C2)c1	8.19	4.82	4.96		4.32	
CN[C@@H](C)C/C=C/c1cncc(O[C@H]2CCN(C(=O)CC(F)(F)F)C2)c1	8.52	5.27	5.17		4.17	
CN[C@@H](C)C/C=C/c1cncc(O[C@H]2CCN(C(=O)CC3CCCC3)C2)c1	8.07	4.59	4.96		4.31	
CN[C@@H](C)C/C=C/c1cnc(Cl)c(O[C@H]2CCN(C(=O)CC3CCCC3)C2)c1	8.21	5.60	5.40		4.44	
CN[C@@H](C)C/C=C/c1cnc(Cl)c(O[C@H]2CCN(C(=O)CCC(F)(F)F)C2)c1		4.60	4.51		4.89	8.55
CN[C@@H](C)C/C=C/c1cncc(O[C@@H]2CCN(C(=O)CC(C)(C)C)C2)c1		4.37	4.46		3.59	7.49
CN[C@@H](C)C/C=C/c1cncc(O[C@@H]2CCN(C(=O)CC3CCCC3)C2)c1	7.96	5.24	3.77		4.28	
CN[C@@H](C)C/C=C/c1cncc(O[C@@H]2CCN(C(=O)CCC(F)(F)F)C2)c1	8.37	4.72	4.37		3.77	
CN[C@@H](C)C/C=C/c1cncc(O[C@@H]2CCN(C(=O)c3ccc(F)cc3)C2)c1	8.17	5.17	4.00		4.28	
CN[C@@H](C)C/C=C/c1cnc(Cl)c(O[C@@H]2CCN(C(=O)C(C)C)C2)c1	8.82				4.44	
CN[C@@H](C)C/C=C/c1cnc(Cl)c(O[C@@H]2CCN(C(=O)c3ccc(F)cc3F)C2)c1	8.42	5.18	4.66		4.66	
CN[C@@H](C)C/C=C/c1cnc(Cl)c(O[C@@H]2CCN(C(=O)C(C)(C)C)C2)c1	8.06	4.59	5.96		4.47	
CN[C@@H](C)C/C=C/c1cnc(Cl)c(O[C@@H]2CCN(C(=O)C3CCC3)C2)c1	8.82				4.35	
CN[C@@H](C)C/C=C/c1cnc(Cl)c(O[C@@H]2CCN(C(=O)C3CCCC3)C2)c1	8.54				5.21	
CN[C@@H](C)C/C=C/c1cnc(Cl)c(O[C@@H]2CCN(C(=O)CC(C)(C)C)C2)c1	7.80				5.19	
CN[C@@H](C)C/C=C/c1cnc(Cl)c(O[C@@H]2CCN(C(=O)CC(F)(F)F)C2)c1	8.92	4.74	5.07		3.52	
CN[C@@H](C)C/C=C/c1cnc(Cl)c(O[C@@H]2CCN(C(=O)CC3CCCC3)C2)c1	8.12				4.52	
CN[C@@H](C)C/C=C/c1cncc(O[C@H]2CCN(C(=O)C(C)C)C2)c1	8.21	4.70	5.24		4.44	
CN[C@@H](C)C/C=C/c1cnc(Cl)c(O[C@@H]2CCN(C(=O)c3ccc(F)cc3)C2)c1	8.48	5.70	5.43		4.21	
